Results as given in patent US10844077B2, “Thiazolyl-containing compounds for treating proliferative diseases” (Dana-Farber Cancer Institute, Inc., priority 2014, dated 2020).

Columns and labels:
Type in all cases: binding
[1] = biological target: broad panel of kinases (Homo sapiens, UniProt O14965); conditions: AURKA; 1 μM
[2] = biological target: broad panel of kinases (Homo sapiens, UniProt O14976); conditions: GAK; 1 μM
[3] = biological target: broad panel of kinases (Homo sapiens, UniProt O15197); conditions: EPHB6; 1 μM
[4] = biological target: broad panel of kinases (Homo sapiens, UniProt O43318); conditions: TAK1; 1 μM
[5] = biological target: broad panel of kinases (Homo sapiens, UniProt O95819); conditions: MAP4K4; 1 μM
[6] = biological target: broad panel of kinases (Homo sapiens, UniProt P08922); conditions: ROS1; 1 μM
[7] = biological target: broad panel of kinases (Homo sapiens, UniProt P10721, D816V); conditions: KIT(D816V); 1 μM
Chain of broad panel of kinases (Homo sapiens, UniProt P10721, D816V) (P10721 26-976 D816V limits assumed): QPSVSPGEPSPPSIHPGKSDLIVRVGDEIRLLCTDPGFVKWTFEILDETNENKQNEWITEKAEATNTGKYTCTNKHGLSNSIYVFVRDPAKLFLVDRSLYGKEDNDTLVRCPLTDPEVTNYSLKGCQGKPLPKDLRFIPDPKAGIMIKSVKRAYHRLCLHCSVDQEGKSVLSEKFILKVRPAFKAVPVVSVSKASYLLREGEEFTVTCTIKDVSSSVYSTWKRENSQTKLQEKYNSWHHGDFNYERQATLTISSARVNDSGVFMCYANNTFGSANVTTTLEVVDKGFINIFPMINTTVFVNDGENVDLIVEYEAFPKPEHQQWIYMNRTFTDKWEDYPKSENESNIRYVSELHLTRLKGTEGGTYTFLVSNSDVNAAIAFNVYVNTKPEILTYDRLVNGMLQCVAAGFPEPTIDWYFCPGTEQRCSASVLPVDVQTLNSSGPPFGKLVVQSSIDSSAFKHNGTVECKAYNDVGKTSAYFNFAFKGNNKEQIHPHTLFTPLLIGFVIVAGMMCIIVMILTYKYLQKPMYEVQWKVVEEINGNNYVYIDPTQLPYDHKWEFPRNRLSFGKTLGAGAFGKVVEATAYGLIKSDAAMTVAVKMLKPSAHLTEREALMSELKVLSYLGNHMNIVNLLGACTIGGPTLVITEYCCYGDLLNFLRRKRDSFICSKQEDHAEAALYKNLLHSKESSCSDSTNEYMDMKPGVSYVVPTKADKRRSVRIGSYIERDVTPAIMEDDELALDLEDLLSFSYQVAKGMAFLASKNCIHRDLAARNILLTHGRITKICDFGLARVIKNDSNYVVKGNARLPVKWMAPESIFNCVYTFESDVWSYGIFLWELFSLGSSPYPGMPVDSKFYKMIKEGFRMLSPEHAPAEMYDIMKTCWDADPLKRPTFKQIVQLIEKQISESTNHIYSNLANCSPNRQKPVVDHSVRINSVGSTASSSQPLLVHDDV

[8] = biological target: broad panel of kinases (Homo sapiens, UniProt P21802); conditions: FGFR2; 1 μM
[9] = biological target: broad panel of kinases (Homo sapiens, UniProt P24723); conditions: PRKCH; 1 μM
[10] = biological target: broad panel of kinases (Homo sapiens, UniProt P29320); conditions: EPHA3; 1 μM
Chain of broad panel of kinases (Homo sapiens, UniProt P29320) (P29320 21-983 limits assumed): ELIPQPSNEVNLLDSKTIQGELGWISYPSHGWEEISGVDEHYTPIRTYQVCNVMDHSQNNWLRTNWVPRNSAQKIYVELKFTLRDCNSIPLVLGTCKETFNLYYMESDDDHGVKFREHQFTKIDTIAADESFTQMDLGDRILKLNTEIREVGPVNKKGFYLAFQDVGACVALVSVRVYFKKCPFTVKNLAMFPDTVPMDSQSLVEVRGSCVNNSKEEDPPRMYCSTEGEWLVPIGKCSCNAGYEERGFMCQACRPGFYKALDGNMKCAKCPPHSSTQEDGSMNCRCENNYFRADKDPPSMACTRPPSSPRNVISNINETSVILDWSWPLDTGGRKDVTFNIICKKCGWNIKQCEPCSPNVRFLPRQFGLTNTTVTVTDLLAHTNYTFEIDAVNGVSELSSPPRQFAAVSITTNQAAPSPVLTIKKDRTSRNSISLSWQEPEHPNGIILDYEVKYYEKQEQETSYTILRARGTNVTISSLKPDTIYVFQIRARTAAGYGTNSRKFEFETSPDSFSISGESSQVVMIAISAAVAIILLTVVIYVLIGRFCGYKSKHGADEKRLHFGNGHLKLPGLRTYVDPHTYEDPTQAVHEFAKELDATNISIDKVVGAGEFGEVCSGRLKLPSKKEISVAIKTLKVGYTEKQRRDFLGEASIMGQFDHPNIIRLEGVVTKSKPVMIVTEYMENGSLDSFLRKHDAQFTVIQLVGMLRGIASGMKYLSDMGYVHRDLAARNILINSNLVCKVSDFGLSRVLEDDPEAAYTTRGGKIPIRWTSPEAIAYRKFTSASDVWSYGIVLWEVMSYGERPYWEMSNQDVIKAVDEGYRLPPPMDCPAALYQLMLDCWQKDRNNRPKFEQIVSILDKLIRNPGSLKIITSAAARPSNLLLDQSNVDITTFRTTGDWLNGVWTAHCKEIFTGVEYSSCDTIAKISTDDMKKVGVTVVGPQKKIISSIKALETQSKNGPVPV

[11] = biological target: broad panel of kinases (Homo sapiens, UniProt P29323); conditions: EPHB2; 1 μM
[12] = biological target: broad panel of kinases (Homo sapiens, UniProt P36888, N841I); conditions: FLT3(N841I); 1 μM
[13] = biological target: broad panel of kinases (Homo sapiens, UniProt P36888, R834Q); conditions: FLT3(R834Q); 1 μM
[14] = biological target: broad panel of kinases (Homo sapiens, UniProt P36894); conditions: BMPR1A; 1 μM
Chain of broad panel of kinases (Homo sapiens, UniProt P36894) (P36894 24-532 limits assumed): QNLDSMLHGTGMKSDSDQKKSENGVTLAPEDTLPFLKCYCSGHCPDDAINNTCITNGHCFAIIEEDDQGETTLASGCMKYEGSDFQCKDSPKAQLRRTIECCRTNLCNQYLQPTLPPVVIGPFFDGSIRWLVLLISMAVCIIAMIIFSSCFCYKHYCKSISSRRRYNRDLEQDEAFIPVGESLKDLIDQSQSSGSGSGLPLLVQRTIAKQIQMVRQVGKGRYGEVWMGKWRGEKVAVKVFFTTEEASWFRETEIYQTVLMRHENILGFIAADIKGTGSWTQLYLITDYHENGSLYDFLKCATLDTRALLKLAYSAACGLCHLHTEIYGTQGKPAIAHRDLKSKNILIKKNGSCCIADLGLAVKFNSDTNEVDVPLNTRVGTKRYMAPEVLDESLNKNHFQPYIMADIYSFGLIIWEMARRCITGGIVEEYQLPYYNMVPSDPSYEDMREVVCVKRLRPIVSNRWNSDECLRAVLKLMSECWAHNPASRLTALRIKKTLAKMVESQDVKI

[15] = biological target: broad panel of kinases (Homo sapiens, UniProt P42680); conditions: TEC; 1 μM
[16] = biological target: broad panel of kinases (Homo sapiens, UniProt P42684); conditions: ABL2; 1 μM
Chain of broad panel of kinases (Homo sapiens, UniProt P42684) (P42684 2-1182 limits assumed): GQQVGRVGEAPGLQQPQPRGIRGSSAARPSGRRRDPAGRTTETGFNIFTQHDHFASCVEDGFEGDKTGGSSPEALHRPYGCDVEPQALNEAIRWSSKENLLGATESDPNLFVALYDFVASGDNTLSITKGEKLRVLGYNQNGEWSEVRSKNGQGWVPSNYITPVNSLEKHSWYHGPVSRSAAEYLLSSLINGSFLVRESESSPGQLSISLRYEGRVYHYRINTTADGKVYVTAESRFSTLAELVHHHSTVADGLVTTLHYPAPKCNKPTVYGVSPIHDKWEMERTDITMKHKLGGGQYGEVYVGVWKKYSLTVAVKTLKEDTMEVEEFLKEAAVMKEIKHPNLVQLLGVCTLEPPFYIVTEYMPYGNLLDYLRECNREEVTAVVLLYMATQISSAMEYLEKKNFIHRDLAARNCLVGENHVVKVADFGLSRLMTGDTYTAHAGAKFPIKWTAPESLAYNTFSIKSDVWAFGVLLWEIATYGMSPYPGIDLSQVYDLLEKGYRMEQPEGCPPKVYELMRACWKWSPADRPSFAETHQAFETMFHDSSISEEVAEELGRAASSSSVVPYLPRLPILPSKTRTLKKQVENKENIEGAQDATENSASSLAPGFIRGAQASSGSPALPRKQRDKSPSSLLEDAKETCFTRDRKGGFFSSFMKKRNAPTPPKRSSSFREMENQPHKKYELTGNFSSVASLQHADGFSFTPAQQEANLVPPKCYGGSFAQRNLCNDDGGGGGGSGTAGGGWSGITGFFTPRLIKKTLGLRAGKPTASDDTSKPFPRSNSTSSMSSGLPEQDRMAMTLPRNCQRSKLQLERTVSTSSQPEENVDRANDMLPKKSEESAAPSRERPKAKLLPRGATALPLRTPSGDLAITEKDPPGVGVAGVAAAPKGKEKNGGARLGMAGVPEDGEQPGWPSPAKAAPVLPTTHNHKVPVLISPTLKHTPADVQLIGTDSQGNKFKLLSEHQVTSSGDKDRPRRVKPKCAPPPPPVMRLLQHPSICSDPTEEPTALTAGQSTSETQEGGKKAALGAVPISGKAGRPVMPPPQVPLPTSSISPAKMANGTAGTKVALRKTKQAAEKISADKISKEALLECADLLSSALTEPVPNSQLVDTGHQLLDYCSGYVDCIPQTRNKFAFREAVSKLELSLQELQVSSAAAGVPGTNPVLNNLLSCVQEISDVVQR

[17] = biological target: broad panel of kinases (Homo sapiens, UniProt P48730); conditions: CSNK1D; 1 μM
[18] = biological target: broad panel of kinases (Homo sapiens, UniProt P48736); conditions: PIK3CG; 1 μM
[19] = biological target: broad panel of kinases (Homo sapiens, UniProt P54756); conditions: EPHA5; 1 μM
[20] = biological target: broad panel of kinases (Homo sapiens, UniProt P78356); conditions: PIP5K2B; 1 μM
[21] = biological target: broad panel of kinases (Homo sapiens, UniProt Q12866); conditions: MERTK; 1 μM
Chain of broad panel of kinases (Homo sapiens, UniProt Q12866) (Q12866 21-999 limits assumed): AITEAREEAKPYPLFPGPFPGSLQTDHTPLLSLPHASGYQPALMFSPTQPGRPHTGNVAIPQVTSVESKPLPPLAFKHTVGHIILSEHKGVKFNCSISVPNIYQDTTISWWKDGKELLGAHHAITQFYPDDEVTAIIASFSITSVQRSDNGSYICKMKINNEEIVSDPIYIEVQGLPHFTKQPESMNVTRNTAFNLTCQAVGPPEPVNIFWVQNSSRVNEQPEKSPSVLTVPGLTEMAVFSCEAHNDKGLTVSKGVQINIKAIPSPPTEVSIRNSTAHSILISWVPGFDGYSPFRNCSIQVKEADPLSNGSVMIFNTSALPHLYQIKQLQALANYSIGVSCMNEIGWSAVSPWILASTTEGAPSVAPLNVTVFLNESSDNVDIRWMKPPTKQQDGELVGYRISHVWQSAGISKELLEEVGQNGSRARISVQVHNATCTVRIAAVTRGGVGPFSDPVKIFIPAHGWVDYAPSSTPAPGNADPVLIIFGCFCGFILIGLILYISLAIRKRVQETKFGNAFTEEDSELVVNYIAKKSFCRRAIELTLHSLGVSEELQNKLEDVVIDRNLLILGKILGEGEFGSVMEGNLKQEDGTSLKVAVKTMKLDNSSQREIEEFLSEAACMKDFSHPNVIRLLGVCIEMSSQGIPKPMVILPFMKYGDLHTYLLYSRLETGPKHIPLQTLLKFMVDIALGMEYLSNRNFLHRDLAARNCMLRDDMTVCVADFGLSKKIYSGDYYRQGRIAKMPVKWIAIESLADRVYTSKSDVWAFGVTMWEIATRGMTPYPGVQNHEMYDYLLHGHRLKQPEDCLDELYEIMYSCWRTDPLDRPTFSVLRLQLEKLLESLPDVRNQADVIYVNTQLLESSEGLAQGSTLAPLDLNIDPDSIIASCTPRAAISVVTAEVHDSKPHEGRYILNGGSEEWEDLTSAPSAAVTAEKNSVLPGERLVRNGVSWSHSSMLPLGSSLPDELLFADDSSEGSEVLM

[22] = biological target: broad panel of kinases (Homo sapiens, UniProt Q13705); conditions: ACVR2B; 1 μM
Chain of broad panel of kinases (Homo sapiens, UniProt Q13705) (Q13705 19-512 limits assumed): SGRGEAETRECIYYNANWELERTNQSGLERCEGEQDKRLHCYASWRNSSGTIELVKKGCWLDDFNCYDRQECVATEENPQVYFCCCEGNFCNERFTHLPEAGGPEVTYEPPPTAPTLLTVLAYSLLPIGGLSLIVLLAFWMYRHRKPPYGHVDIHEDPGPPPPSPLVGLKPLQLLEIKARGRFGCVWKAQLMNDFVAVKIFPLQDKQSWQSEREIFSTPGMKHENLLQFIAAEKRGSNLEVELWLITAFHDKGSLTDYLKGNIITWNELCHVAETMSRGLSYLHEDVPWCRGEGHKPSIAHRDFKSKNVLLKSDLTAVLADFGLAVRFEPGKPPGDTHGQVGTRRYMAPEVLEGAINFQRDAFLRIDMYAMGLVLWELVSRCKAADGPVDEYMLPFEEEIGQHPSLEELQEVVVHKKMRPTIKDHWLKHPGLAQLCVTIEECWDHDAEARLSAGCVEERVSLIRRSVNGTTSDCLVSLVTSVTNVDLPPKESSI

[23] = biological target: broad panel of kinases (Homo sapiens, UniProt Q16566); conditions: CAMK4; 1 μM
[24] = biological target: broad panel of kinases (Homo sapiens, UniProt Q86UE8); conditions: TLK2; 1 μM
[25] = biological target: broad panel of kinases (Homo sapiens, UniProt Q86Z02); conditions: HIPK1; 1 μM
[26] = biological target: broad panel of kinases (Homo sapiens, UniProt Q8N752); conditions: CSNK1A1L; 1 μM
[27] = biological target: broad panel of kinases (Homo sapiens, UniProt Q8NG66); conditions: NEK11; 1 μM
[28] = biological target: broad panel of kinases (Homo sapiens, UniProt Q8TDR2); conditions: STK35; 1 μM
[29] = biological target: broad panel of kinases (Homo sapiens, UniProt Q8WU08); conditions: YANK1; 1 μM
[30] = biological target: broad panel of kinases (Homo sapiens, UniProt Q99640); conditions: PKMYT1; 1 μM
[31] = biological target: broad panel of kinases (Homo sapiens, UniProt Q9BYT3); conditions: STK33; 1 μM
[32] = biological target: broad panel of kinases (Homo sapiens, UniProt Q9H2K8); conditions: TAOK3; 1 μM
[33] = biological target: broad panel of kinases (Homo sapiens, UniProt Q9NRH2); conditions: SNRK; 1 μM
[34] = biological target: broad panel of kinases (Homo sapiens, UniProt Q9UBF8); conditions: PIK4CB; 1 μM
[35] = biological target: broad panel of kinases (Homo sapiens, UniProt Q9UF33); conditions: EPHA6; 1 μM
[36] = biological target: broad panel of kinases (Homo sapiens, UniProt Q9UM73); conditions: ALK; 1 μM
[37] = biological target: broad panel of kinases (Homo sapiens, UniProt Q9Y243); conditions: AKT3; 1 μM

Row | SMILES | percent of control binding remaining (lower = stronger binding) [1] [%] | percent of control binding remaining (lower = stronger binding) [2] [%] | percent of control binding remaining (lower = stronger binding) [3] [%] | percent of control binding remaining (lower = stronger binding) [4] [%] | percent of control binding remaining (lower = stronger binding) [5] [%] | percent of control binding remaining (lower = stronger binding) [6] [%] | percent of control binding remaining (lower = stronger binding) [7] [%] | percent of control binding remaining (lower = stronger binding) [8] [%] | percent of control binding remaining (lower = stronger binding) [9] [%] | percent of control binding remaining (lower = stronger binding) [10] [%] | percent of control binding remaining (lower = stronger binding) [11] [%] | percent of control binding remaining (lower = stronger binding) [12] [%] | percent of control binding remaining (lower = stronger binding) [13] [%] | percent of control binding remaining (lower = stronger binding) [14] [%] | percent of control binding remaining (lower = stronger binding) [15] [%] | percent of control binding remaining (lower = stronger binding) [16] [%] | percent of control binding remaining (lower = stronger binding) [17] [%] | percent of control binding remaining (lower = stronger binding) [18] [%] | percent of control binding remaining (lower = stronger binding) [19] [%] | percent of control binding remaining (lower = stronger binding) [20] [%] | further results
1 | C=CC(=O)N1CC[C@H](Nc2nc(CN3CCOCC3)cc(Nc3ncc(C(=O)Nc4c(C)cccc4C)s3)n2)C1 [Example I-2] | 73 | 11 | 7.7 | 95 | 96 | 97 | 1.7 | 73 | 97 | 47 | 0 | 100 | 100 | 100 | 3.6 | 0.3 | 100 | 100 | 0.95 | 98 | percent of control binding remaining (lower = stronger binding) [21]: 90%; percent of control binding remaining (lower = stronger binding) [22]: 78%; percent of control binding remaining (lower = stronger binding) [23]: 96%; percent of control binding remaining (lower = stronger binding) [24]: 97%; percent of control binding remaining (lower = stronger binding) [25]: 93%; percent of control binding remaining (lower = stronger binding) [26]: 100%; percent of control binding remaining (lower = stronger binding) [27]: 83%; percent of control binding remaining (lower = stronger binding) [28]: 99%; percent of control binding remaining (lower = stronger binding) [29]: 100%; percent of control binding remaining (lower = stronger binding) [30]: 59%; percent of control binding remaining (lower = stronger binding) [31]: 86%; percent of control binding remaining (lower = stronger binding) [32]: 81%; percent of control binding remaining (lower = stronger binding) [33]: 100%; percent of control binding remaining (lower = stronger binding) [34]: 100%; percent of control binding remaining (lower = stronger binding) [35]: 100%; percent of control binding remaining (lower = stronger binding) [36]: 97%; percent of control binding remaining (lower = stronger binding) [37]: 90%
2 | C=CC(=O)N1CC[C@H](Nc2nccc(Nc3ncc(C(=O)Nc4c(C)cccc4C)s3)n2)C1 [Example I-3] | 80 | 11 | 4.6 | 90 | 96 | 90 | 14 | 88 | 88 | 49 | 0 | 100 | 100 | 92 | 3.3 | 0.25 | 99 | 100 | 0.85 | 100 | percent of control binding remaining (lower = stronger binding) [21]: 100%; percent of control binding remaining (lower = stronger binding) [22]: 95%; percent of control binding remaining (lower = stronger binding) [23]: 84%; percent of control binding remaining (lower = stronger binding) [24]: 94%; percent of control binding remaining (lower = stronger binding) [25]: 95%; percent of control binding remaining (lower = stronger binding) [26]: 95%; percent of control binding remaining (lower = stronger binding) [27]: 49%; percent of control binding remaining (lower = stronger binding) [28]: 100%; percent of control binding remaining (lower = stronger binding) [29]: 84%; percent of control binding remaining (lower = stronger binding) [30]: 47%; percent of control binding remaining (lower = stronger binding) [31]: 96%; percent of control binding remaining (lower = stronger binding) [32]: 91%; percent of control binding remaining (lower = stronger binding) [33]: 92%; percent of control binding remaining (lower = stronger binding) [34]: 36%; percent of control binding remaining (lower = stronger binding) [35]: 100%; percent of control binding remaining (lower = stronger binding) [36]: 83%; percent of control binding remaining (lower = stronger binding) [37]: 81%
